# In PubChem BioAssay (NCI):
#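 Results reflect a 48-hour exposure of cells in 96-well plates to compound at five concentrations. At the TGI there is no net growth.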
# Tests used:
# Assay in all cases: NCI tumour cell line growth inhibition, 48 h
# [1] = test system: NCI/ADR-RES ovarian
# [2] = test system: M14 melanoma
# [3] = test system: COLO 205 colon
# [4] = test system: NCI-H460 lung
# [5] = test system: SNB-19 CNS
# [6] = test system: NCI-H23 lung
# [7] = test system: SN12C renal
# [8] = test system: SF-295 CNS
# [9] = test system: LOX IMVI melanoma
# [10] = test system: A549 NSCLC
# [11] = test system: NCI-H522 lung
# [12] = test system: MCF7 breast
# [13] = test system: BT-549 breast
# [14] = test system: MDA-N
# [15] = test system: OVCAR-4 ovarian
# [16] = test system: RXF 393 renal
# [17] = test system: IGROV1 ovarian
# [18] = test system: MDA-MB-435
# [19] = test system: MDA-MB-231 breast
# [20] = test system: HOP-62 NSCLC
# [21] = test system: SR leukemia
# [22] = test system: UACC-257 melanoma
# [23] = test system: HL-60(TB) leukemia
# [24] = test system: OVCAR-8 ovarian
# [25] = test system: KM12 colon
# [26] = test system: UO-31 renal
# [27] = test system: HOP-92 NSCLC
# [28] = test system: HT29 colon
# [29] = test system: MOLT-4 leukemia
# [30] = test system: ACHN renal
# [31] = test system: A498 renal
# [32] = test system: OVCAR-5 ovarian
# [33] = test system: SK-MEL-2 melanoma
# [34] = test system: CAKI-1 renal
# [35] = test system: SF-268 CNS
# [36] = test system: SK-MEL-5 melanoma
# [37] = test system: HCT-116 colon
# [38] = test system: U251 CNS
# [39] = test system: T-47D breast
# [40] = test system: SK-OV-3 ovarian
# [41] = test system: 786-0 renal
# [42] = test system: CCRF-CEM leukemia
# [43] = test system: PC-3 prostate
# [44] = test system: DU-145 prostate
# [45] = test system: SK-MEL-28 melanoma
# [46] = test system: SW-620 colon
# [47] = test system: EKVX NSCLC
# [48] = test system: HCC-2998 colon
# [49] = test system: RPMI-8226 leukemia
# [50] = test system: HCT-15 colon
# [51] = test system: TK-10 renal
# [52] = test system: OVCAR-3 ovarian
# [53] = test system: NCI-H226 lung
# [54] = test system: HS 578T breast
# [55] = test system: SNB-75 CNS
# [56] = test system: MALME-3M melanoma
# [57] = test system: UACC-62 melanoma
# [58] = test system: SF-539 CNS
# [59] = test system: K-562 leukemia
smiles,measurement,setting,value
O=C(O)[C@@H]1NC[C@H]2C(Br)=NO[C@H]21,TGI,[1],> 100 µM
same,TGI,[2],> 100 µM
same,TGI,[3],> 100 µM
same,TGI,[4],> 100 µM
same,TGI,[5],> 100 µM
same,TGI,[6],> 100 µM
same,TGI,[7],> 100 µM
same,TGI,[8],> 100 µM
same,TGI,[9],> 100 µM
same,TGI,[10],> 100 µM
same,TGI,[11],> 100 µM
same,TGI,[12],> 100 µM
same,TGI,[13],> 100 µM
same,TGI,[14],> 100 µM
same,TGI,[15],> 100 µM
same,TGI,[16],> 100 µM
same,TGI,[17],> 100 µM
same,TGI,[18],> 100 µM
same,TGI,[19],> 100 µM
same,TGI,[20],> 100 µM
same,TGI,[21],> 100 µM
same,TGI,[22],> 100 µM
same,TGI,[23],> 100 µM
same,TGI,[24],> 100 µM
same,TGI,[25],> 100 µM
same,TGI,[26],> 100 µM
same,TGI,[27],> 100 µM
same,TGI,[28],> 100 µM
same,TGI,[29],> 100 µM
same,TGI,[30],> 100 µM
same,TGI,[31],> 100 µM
same,TGI,[32],> 100 µM
same,TGI,[33],> 100 µM
same,TGI,[34],> 100 µM
same,TGI,[35],> 100 µM
same,TGI,[36],> 100 µM
same,TGI,[37],> 100 µM
same,TGI,[38],> 100 µM
same,TGI,[39],> 100 µM
same,TGI,[40],> 100 µM
same,TGI,[41],> 100 µM
same,TGI,[42],> 100 µM
same,TGI,[43],> 100 µM
same,TGI,[44],> 100 µM
same,TGI,[45],> 100 µM
same,TGI,[46],> 100 µM
same,TGI,[47],> 100 µM
same,TGI,[48],> 100 µM
same,TGI,[49],> 100 µM
same,TGI,[50],> 100 µM
same,TGI,[51],> 100 µM
same,TGI,[52],> 100 µM
same,TGI,[53],> 100 µM
same,TGI,[54],> 100 µM
same,TGI,[55],> 100 µM
same,TGI,[56],> 100 µM
same,TGI,[57],> 100 µM
Cc1ccc2[nH]c3c(c2c1)C1CCC(C(C)(C)C)CC1C1C(=O)N(c2ccc4c(c2)OCO4)C(=O)C31 (stereo not given),TGI,[1],10.2 µM
same,TGI,[2],17.2 µM
same,TGI,[3],12.5 µM
same,TGI,[4],3.27 µM
same,TGI,[5],7.97 µM
same,TGI,[6],18.3 µM
same,TGI,[7],4.96 µM
same,TGI,[8],9.85 µM
same,TGI,[9],6.25 µM
same,TGI,[10],6.38 µM
same,TGI,[11],7.18 µM
same,TGI,[12],12.4 µM
same,TGI,[13],20.6 µM
same,TGI,[14],17.6 µM
same,TGI,[15],3.62 µM
same,TGI,[58],2.74 µM
same,TGI,[16],4.11 µM
same,TGI,[17],6.68 µM
same,TGI,[18],20.5 µM
same,TGI,[19],5.11 µM
same,TGI,[20],4.24 µM
same,TGI,[21],3.73 µM
same,TGI,[22],23.7 µM
same,TGI,[23],11.9 µM
same,TGI,[24],4.28 µM
same,TGI,[25],19 µM
same,TGI,[26],7.28 µM
same,TGI,[27],6.22 µM
same,TGI,[28],16.2 µM
same,TGI,[29],4.25 µM
same,TGI,[30],3.63 µM
same,TGI,[31],3.48 µM
same,TGI,[32],13.6 µM
same,TGI,[33],19.3 µM
same,TGI,[34],5.54 µM
same,TGI,[35],5.04 µM
same,TGI,[36],22.9 µM
same,TGI,[37],6.36 µM
same,TGI,[38],4.77 µM
same,TGI,[39],3.94 µM
same,TGI,[40],6.86 µM
same,TGI,[41],3 µM
same,TGI,[42],3.81 µM
same,TGI,[43],9.17 µM
same,TGI,[44],9.88 µM
same,TGI,[45],17.9 µM
same,TGI,[46],7.95 µM
same,TGI,[47],10.1 µM
same,TGI,[59],9.62 µM
same,TGI,[48],5.84 µM
same,TGI,[49],14.7 µM
same,TGI,[50],16.5 µM
same,TGI,[51],4.32 µM
same,TGI,[52],3.08 µM
same,TGI,[53],8.58 µM
same,TGI,[54],3.53 µM
same,TGI,[56],6.14 µM
same,TGI,[57],22.9 µM
C#CCCCOc1ncccn1,TGI,[1],> 100 µM
same,TGI,[2],> 100 µM
same,TGI,[3],> 100 µM
same,TGI,[5],> 100 µM
same,TGI,[6],> 100 µM
same,TGI,[7],> 100 µM
same,TGI,[8],> 100 µM
same,TGI,[9],> 100 µM
same,TGI,[10],> 100 µM
same,TGI,[11],> 100 µM
same,TGI,[12],> 100 µM
same,TGI,[13],> 100 µM
same,TGI,[14],> 100 µM
same,TGI,[15],> 100 µM
same,TGI,[58],> 100 µM
same,TGI,[16],> 100 µM
same,TGI,[17],> 100 µM
same,TGI,[18],> 100 µM
same,TGI,[19],> 100 µM
same,TGI,[20],> 100 µM
same,TGI,[21],> 100 µM
same,TGI,[22],> 100 µM
same,TGI,[23],> 100 µM
same,TGI,[24],> 100 µM
same,TGI,[25],> 100 µM
same,TGI,[26],> 100 µM
same,TGI,[27],> 100 µM
same,TGI,[28],> 100 µM
same,TGI,[29],> 100 µM
same,TGI,[30],> 100 µM
same,TGI,[31],> 100 µM
same,TGI,[32],> 100 µM
same,TGI,[33],> 100 µM
same,TGI,[34],> 100 µM
same,TGI,[35],> 100 µM
same,TGI,[36],> 100 µM
same,TGI,[37],> 100 µM
same,TGI,[38],> 100 µM
same,TGI,[39],> 100 µM
same,TGI,[40],> 100 µM
same,TGI,[41],> 100 µM
same,TGI,[43],> 100 µM
same,TGI,[44],> 100 µM
same,TGI,[45],> 100 µM
same,TGI,[46],> 100 µM
same,TGI,[47],> 100 µM
same,TGI,[59],> 100 µM
same,TGI,[48],> 100 µM
same,TGI,[49],> 100 µM
same,TGI,[51],> 100 µM
same,TGI,[52],> 100 µM
same,TGI,[53],> 100 µM
same,TGI,[54],> 100 µM
same,TGI,[56],> 100 µM
same,TGI,[57],> 100 µM
